Measured values from patent publication US11395857B2, “Radiolabeled melanocortin 1 receptor-specific alpha-melanocyte-stimulating hormone analogues for imaging or therapy” (PROVINCIAL HEALTH SERVICES AUTHORITY, priority 2018, dated 2022).

How the values were obtained:
SK-MEL-1 human melanoma = test: SPECT/CT imaging of mice bearing SK-MEL-1 human melanoma; assay type: in vivo, NRG mice; details: 24 h p.i.
Procedure: SPECT/CT imaging experiments were conducted using the same conditions as described in Example 3. […] (FIG. 6).

[1] = In vivo stability in mouse urine at 1 h p.i. (radio-HPLC); set-up: species or system C57BL/6J mice
Procedure: All animal experiments were conducted in according to the guidelines established by Canadian Council on Animal Care and approved by Animal Ethics Committee of the University of British Columbia. Mice were housed under pathogen-free conditions and kept on twelve hours light and twelve hours dark cycle in the Animal Research Centre, BC Cancer Research Centre, Vancouver, Canada. C57BL/6J mice were anesthetized by inhalation with 2% isoflurane in 2.0 L/min of oxygen, and approximately 4-6 MBq of [^68Ga]Ga-CCZ01099 or [^68Ga]Ga-CCZ01048 was injected intravenously. The mice were allowed to recover and roam freely in their cages. At 1 h post-injection (p.i.), the mice were euthanized by CO2 inhalation and their urine was collected and analyzed on HPLC for metabolite using the conditions described above. In vivo urine stability of [^68Ga]Ga-CCZ01099 and [^68Ga]Ga-CCZ01048 were 34.0±10.4% and ≥98.0% (n≥3), respectively.
The in vivo stability tests in mouse urine were performed as described in Example 1. […] With systematic reduction in the number of N-methylations for the αMSH analogues, a decrease in in vivo stability was observed.

B16F10 cells = test: In vitro competition binding assay on B16-F10 cells vs 125I-[Nle4,D-Phe7]-alpha-MSH; set-up: species or system Mus musculus; details: natGa-coupled peptides
Procedure: The B16-F10 melanoma cell line (Mus musculus) used in the tumor model was obtained commercially from ATTC (CRL-6475). Cells were cultured in Dulbecco's Modified Eagle's Medium (DMEM, StemCell Technologies) supplemented by 10% FBS, 100 U/mL penicillin and 100 μg/mL streptomycin at 37° C. in a humidified incubator containing 5% CO2. Cells grown to roughly 90% confluence were washed with sterile phosphate-buffered saline (lx PBS, pH 7.4), followed by trypsinization. For tumour implantation, C57BL/6J mice were anesthetized by inhalation with 2% isoflurane in 2.0 L/min of oxygen, 2×10^6 B16-F10 cells were inoculated subcutaneously on right dorsal flank. Mice were imaged or used in biodistribution studies once the tumour reached 6-8 mm in diameter.
In vitro competitive binding assays were performed using B16-F10 cells and the cell culture method described in Example 1. 500,000 cells/well were seeded onto a 24 well poly-D-lysine coated plate (Corning) overnight. Growth media was removed, and reaction buffer containing 4.8 mg/mL HEPES, […] penicillin/[…] and 2 mg/mL BSA was added, and allowed to incubate with cells at 37° C. for at least an hour. Peptide of interest and ^125I-[Nle^4, D-Phe^7]-alpha-MSH (Perkin Elmer) were added to each well. The binding of ^125I-[Nle^4, D-Phe^7]-alpha-MSH was competed by non-radioactive gallium coupled CCZ01103, CCZ01104, CCZ01105, CCZ01106 or CCZ01114 at increasing concentrations from 0.5 pmol/mL to […]. The reaction mixture was incubated at 25° C. with moderate shaking for 1 h. After the incubation, the reaction mixture was removed, and cells were washed with ice-cold PBS twice. 0.25% Trypsin solution was used to harvest the cells and radioactivity was measured using a Wallac WIZARD2 gamma counter (Perkin Elmer).

B16-F10 tumours = details: Zhang et al., 2017 Theranostics; cited from earlier work

Tumour uptake / retention in SPECT images (SK-MEL-1 human melanoma)	In vivo urine stability, intact tracer [1] [%]	SMILES	Binding affinity (comparison among the five analogues) (B16F10 cells)	also measured
showed improved the tumour retention		CCCC[C@H](NC(=O)CN1CCC(NC(=O)[C@H](CCCCNC(=O)CN2CCN(CC(=O)O)CCN(CC(=O)O)CCN(CC(=O)O)CC2)NC(=O)CNC(=O)CCCc2ccc(C)cc2)CC1)C(=O)N[C@H]1CC(=O)NCCCC[C@@H](C(N)=O)N(C)C(=O)[C@H](Cc2c[nH]c3ccccc23)NC(=O)[C@H](CCCNC(=N)N)N(C)C(=O)[C@@H](Cc2ccccc2)NC(=O)[C@H](Cc2cnc[nH]2)NC1=O [CCZ01158]		Blood uptake in SPECT images (SK-MEL-1 human melanoma): Lower blood uptake was observed
showed improved the tumour retention		CCCC[C@H](NC(=O)CN1CCC(NC(=O)[C@H](CCCCNC(=O)CN2CCN(CC(=O)O)CCN(CC(=O)O)CCN(CC(=O)O)CC2)NC(=O)CNC(=O)CCCc2ccc(I)cc2)CC1)C(=O)N[C@H]1CC(=O)NCCCC[C@@H](C(N)=O)N(C)C(=O)[C@H](Cc2c[nH]c3ccccc23)NC(=O)[C@H](CCCNC(=N)N)N(C)C(=O)[C@@H](Cc2ccccc2)NC(=O)[C@H](Cc2c[nH]cn2)NC1=O [CCZ01148]		
	82.5±1.8	CCCC[C@H](NC(=O)CN1CCC(NC(=O)CN2CCN(CC(=O)O)CCN(CC(=O)O)CCN(CC(=O)O)CC2)CC1)C(=O)N[C@H]1CC(=O)NCCCC[C@@H](C(N)=O)N(C)C(=O)[C@H](Cc2c[nH]c3ccccc23)NC(=O)[C@H](CCCNC(=N)N)N(C)C(=O)[C@@H](Cc2ccccc2)NC(=O)[C@H](Cc2c[nH]cn2)NC1=O [CCZ01106, DOTA-Pip-Nle-cyclo[Asp-His-D-Phe-(N-Me-Arg)-Trp-(N-Me-Lys)]—NH2]	highest binding affinity	Ki (B16F10 cells; n ≥ 3, read-out: Inhibition constants (Ki) on B16F10 cells): 1.5 ± 0.1 nM
		CCCC[C@H](NC(=O)CN1CCC(NC(=O)CN2CCN(CC(=O)O)CCN(CC(=O)O)CCN(CC(=O)O)CC2)CC1)C(=O)N[C@H]1CC(=O)NCCCC[C@@H](C(N)=O)NC(=O)[C@H](Cc2c[nH]c3ccccc23)NC(=O)[C@H](CCCNC(=N)N)N(C)C(=O)[C@@H](Cc2ccccc2)NC(=O)[C@H](Cc2c[nH]cn2)NC1=O [CCZ01114, DOTA-Pip-Nle-cyclo[Asp-His-D-Phe-(N-Me-Arg)-Trp-Lys]-NH2]	highest binding affinity	
	92.5 ± 2.1	CCCC[C@H](NC(=O)CN1CCC(NC(=O)CN2CCN(CC(=O)O)CCN(CC(=O)O)CCN(CC(=O)O)CC2)CC1)C(=O)N[C@H]1CC(=O)NCCCC[C@@H](C(N)=O)NC(=O)[C@H](Cc2c[nH]c3ccccc23)N(C)C(=O)[C@H](CCCNC(=N)N)N(C)C(=O)[C@@H](Cc2ccccc2)NC(=O)[C@H](Cc2c[nH]cn2)NC1=O [[^68Ga]Ga-CCZ01104, metal not drawn]		
	≥ 98.0	CCCC[C@H](NC(=O)CN1CCC(NC(=O)CN2CCN(CC(=O)O)CCN(CC(=O)O)CCN(CC(=O)O)CC2)CC1)C(=O)N[C@H]1CC(=O)NCCCC[C@@H](C(N)=O)NC(=O)[C@H](Cc2c[nH]c3ccccc23)NC(=O)[C@H](CCCNC(=N)N)NC(=O)[C@@H](Cc2ccccc2)NC(=O)[C@H](Cc2c[nH]cn2)NC1=O [[^68Ga]Ga-CCZ01048, metal not drawn, reference compound]		Thyroid uptake on PET images (B16-F10 tumours): thyroid uptake was clearly observed
